These results are taken from PubChem BioAssay AID330 (DTP/NCI, 2004).

Where “and” joins values, the source holds several entries; their conditions need not be identical. Identical values can stand only once. Inconclusive results and toxic doses are left out.

The test deals with P388 leukemia ip, CD2F1 mice, survival T/C. In words: NCI In Vivo Anticancer Drug Screen. Data for tumor model P388 Leukemia (intraperitoneal) in CD2F1 (CDF1) mice. Particulars: endpoint: median survival time, higher = longer survival. The procedure, abridged: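 Mice carrying the transplanted tumor received test compound or vehicle. Survival was recorded in each group, and the value is the treated-group measurement divided by that of the vehicle-treated control group.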

Where [1] appears, read: dose: 60.0 mg/kg/injection, schedule: Q01DX005 (ip), vehicle: saline with Tween-80.
Setting [2] is: dose: 50.0 mg/kg/injection, schedule: Q01DX009 (ip), vehicle: Klucel (hydroxypropylcellulose) (HPC).
Where [3] appears, read: dose: 100.0 mg/kg/injection, schedule: Q01DX009 (ip), vehicle: Klucel (hydroxypropylcellulose) (HPC).
The mark [4] stands for this setting: dose: 200.0 mg/kg/injection, schedule: Q01DX009 (ip), vehicle: Klucel (hydroxypropylcellulose) (HPC).
The mark [5] stands for this setting: dose: 25.0 mg/kg/injection, schedule: Q01DX005 (ip), vehicle: saline.
The mark [6] stands for this setting: dose: 50.0 mg/kg/injection, schedule: Q01DX005 (ip), vehicle: saline.
Where [7] appears, read: dose: 100.0 mg/kg/injection, schedule: Q01DX005 (ip), vehicle: saline.
Setting [8] is: dose: 120.0 mg/kg/injection, schedule: Q01DX005 (ip), vehicle: saline with Tween-80.
[9] abbreviates: dose: 50.0 mg/kg/injection, schedule: Q01DX005 (ip), vehicle: Klucel (hydroxypropylcellulose) (HPC).
Setting [10] is: dose: 100.0 mg/kg/injection, schedule: Q01DX005 (ip), vehicle: Klucel (hydroxypropylcellulose) (HPC).

Take `Oc1ccc(Nc2ccnc3cc(Cl)ccc23)cc1CN(CCCl)CCCl`: the T/C reads like this: (dose: 0.16 mg/kg/injection, schedule: Q01DX009 (ip), vehicle: saline) 119 % of control; (dose: 0.31 mg/kg/injection, schedule: Q01DX009 (ip), vehicle: saline) 123 % of control; (dose: 0.63 mg/kg/injection, schedule: Q01DX009 (ip), vehicle: saline) 150 % of control; (dose: 1.25 mg/kg/injection, schedule: Q01DX009 (ip), vehicle: saline) 101 % of control; (dose: 2.5 mg/kg/injection, schedule: Q01DX009 (ip), vehicle: saline) 153 % of control and 156 % of control.

`CN(C)/N=C1/CCCCC1C(O)(c1ccccc1)c1ccccc1` (stereo unspecified): the T/C under setting [1] was 97 % of control.

With `O=C1NC(=O)N2CC(CI)OC2C1c1ccccc1` (stereo unspecified), the T/C was 103 % of control under setting [2], 98 % of control under setting [3] and 100 % of control under setting [4].

For `O=[N+]([O-])c1ccc2c(c1)C1CN(Cc3ccccc31)C2` (stereo unspecified), the T/C is, setting by setting: (dose: 100.0 mg/kg/injection, schedule: Q01DX001 (ip), vehicle: saline with Tween-80) 90 % of control; (dose: 200.0 mg/kg/injection, schedule: Q01DX001 (ip), vehicle: saline with Tween-80) 89 % of control; (dose: 400.0 mg/kg/injection, schedule: Q01DX001 (ip), vehicle: saline with Tween-80) 97 % of control.

As for `CC(=O)OC(C)C(=O)NCC(C)O` (stereo unspecified), the T/C runs as follows: under setting [5], 100 % of control; under setting [6], 103 % of control; under setting [7], 98 % of control; (dose: 200.0 mg/kg/injection, schedule: Q01DX005 (ip), vehicle: saline) 100 % of control.

As to `C[n+]1cccc(C(=O)OCC(C)(C)N(Cl)Cl)c1`, the T/C (dose: 50.0 mg/kg/injection, schedule: Q01DX009 (ip), vehicle: saline) is 109 % of control.

For `CCCCOP(O)(=S)OCCCC.[Er]`, the T/C is 96 % of control (dose: 100.0 mg/kg/injection, schedule: Q04DX002 (ip), vehicle: saline with Tween-80); 101 % of control (dose: 200.0 mg/kg/injection, schedule: Q04DX002 (ip), vehicle: saline with Tween-80); 95 % of control (dose: 400.0 mg/kg/injection, schedule: Q04DX002 (ip), vehicle: saline with Tween-80).

Turning to `CC([NH-])C(=O)O.[Cu+2].[NH-]C(Cc1cnc[nH]1)C(=O)O` (stereo unspecified), the T/C (dose: 25.0 mg/kg/injection, schedule: Q01DX009 (ip), vehicle: saline) was 97 % of control.

Consider `c1ccc(-c2nc[nH]c2-c2ccccc2)cc1`, for which the T/C is, setting by setting: under setting [2], 96 % of control; under setting [3], 97 % of control; (dose: 100.0 mg/kg/injection, schedule: Q01DX009 (ip), vehicle: suspension in saline) 101 % of control; under setting [4], 98 % of control; (dose: 200.0 mg/kg/injection, schedule: Q01DX009 (ip), vehicle: suspension in saline) 96 % of control; (dose: 400.0 mg/kg/injection, schedule: Q01DX009 (ip), vehicle: Klucel (hydroxypropylcellulose) (HPC)) 97 % of control.

Consider `O=c1[nH]c(-c2cccc(-c3nnc(-c4ccccc4Cl)c(=O)[nH]3)c2)nnc1-c1ccccc1Cl`, for which the T/C (dose: 100.0 mg/kg/injection, schedule: Q04DX002 (ip), vehicle: Klucel (hydroxypropylcellulose) (HPC)) was 100 % of control; the T/C (dose: 200.0 mg/kg/injection, schedule: Q04DX002 (ip), vehicle: Klucel (hydroxypropylcellulose) (HPC)) was 100 % of control; the T/C (dose: 400.0 mg/kg/injection, schedule: Q04DX002 (ip), vehicle: Klucel (hydroxypropylcellulose) (HPC)) was 96 % of control.

Take `O=c1[nH]c2cc(Cl)ccc2nc1/C=C(\O)c1ccc(O)cc1`: the T/C reads like this: under setting [1], 102 % of control; under setting [8], 95 % of control; (dose: 240.0 mg/kg/injection, schedule: Q01DX005 (ip), vehicle: saline with Tween-80) 95 % of control.

With `CC[N+](C)(CC)C1C(S(=O)(=O)c2ccccc2)CC1(C)C` (stereo unspecified), the T/C under setting [5] was 108 % of control, the T/C under setting [6] was 98 % of control and the T/C under setting [7] was 99 % of control.

Turning to `COC(=O)/C=C1/Nc2c(n(C)c(=O)n(C)c2=O)NC1=O`, the T/C is, setting by setting: (dose: 100.0 mg/kg/injection, schedule: Q04DX003 (ip), vehicle: saline) 107 % of control; (dose: 200.0 mg/kg/injection, schedule: Q04DX003 (ip), vehicle: saline) 94 % of control; (dose: 400.0 mg/kg/injection, schedule: Q04DX003 (ip), vehicle: saline) 99 % of control.

For `Cc1cc(=O)[nH]c(Nc2ccccc2)n1`, the T/C (dose: 100.0 mg/kg/injection, schedule: Q04DX003 (ip), vehicle: saline with Tween-80) was 100 % of control; the T/C (dose: 200.0 mg/kg/injection, schedule: Q04DX003 (ip), vehicle: saline with Tween-80) is 90 % of control; the T/C (dose: 400.0 mg/kg/injection, schedule: Q04DX003 (ip), vehicle: saline with Tween-80) was 100 % of control.

For `O.O.O=C(O)C(=O)O.O=C(O)C(=O)O.[Rh]`, the T/C is 94 % of control (dose: 25.0 mg/kg/injection, schedule: Q04DX003 (ip), vehicle: water); 95 % of control (dose: 50.0 mg/kg/injection, schedule: Q04DX003 (ip), vehicle: water); 100 % of control (dose: 100.0 mg/kg/injection, schedule: Q04DX003 (ip), vehicle: water); 100 % of control (dose: 200.0 mg/kg/injection, schedule: Q04DX003 (ip), vehicle: water).

As for `COC(=O)[C@@]12OC[C@]34[C@H]([C@@H](O)[C@@H]1O)[C@@]1(C)CC(=O)C(O)=C(C)[C@@H]1C[C@H]3OC(=O)[C@H](OC(=O)/C=C(/C)C(C)(C)O)[C@@H]24`, the T/C reads like this: (dose: 0.25 mg/kg/injection, schedule: Q01DX009 (ip), vehicle: saline + alcohol) 113 % of control and 115 % of control; (dose: 0.5 mg/kg/injection, schedule: Q01DX009 (ip), vehicle: saline + alcohol) 115 % of control (2×) and 124 % of control; (dose: 8.0 mg/kg/injection, schedule: Q01DX009 (ip), vehicle: saline + alcohol) 162 % of control.

`O=C1OC(=O)C2=C1C1c3ccccc3C2c2ccccc21`: the T/C runs as follows: (dose: 12.5 mg/kg/injection, schedule: Q01DX005 (ip), vehicle: Klucel (hydroxypropylcellulose) (HPC)) 100 % of control; (dose: 25.0 mg/kg/injection, schedule: Q01DX005 (ip), vehicle: Klucel (hydroxypropylcellulose) (HPC)) 109 % of control; under setting [9], 108 % of control and 110 % of control; under setting [10], 106 % of control.

For `CC(=O)OC1CC2CCC3C(CCC4(C)C3CC([N+]3(C)CCCCC3)C4OC(C)=O)C2(C)CC1[N+]1(C)CCCCC1` (stereo unspecified), the T/C (dose: 12.5 micrograms/kg/injection, schedule: Q01DX009 (ip), vehicle: saline) was 103 % of control; the T/C (dose: 25.0 micrograms/kg/injection, schedule: Q01DX009 (ip), vehicle: saline) is 100 % of control; the T/C (dose: 50.0 micrograms/kg/injection, schedule: Q01DX009 (ip), vehicle: saline) was 103 % of control.

Regarding `Cc1ccc(C(=O)c2ccc[n+](C)c2)cc1`, the T/C reads like this: under setting [6], 100 % of control; under setting [7], 101 % of control.

In the case of `COC(=O)NC(=O)CNc1ncc([N+](=O)[O-])s1`, the T/C runs as follows: (dose: 100.0 mg/kg/injection, schedule: Q01DX001 (ip), vehicle: saline) 107 % of control; (dose: 200.0 mg/kg/injection, schedule: Q01DX001 (ip), vehicle: saline) 107 % of control; (dose: 400.0 mg/kg/injection, schedule: Q01DX001 (ip), vehicle: saline) 88 % of control.

For the molecule `CCN(CC)C(=S)C(C)(C)C`, the T/C was 106 % of control under setting [1] and 106 % of control under setting [8].

Turning to `COC(=O)C1=C(C(=O)OC)P2(C)(C)ON(c3ccccc3)C(C(=O)c3ccccc3)N2C1(c1ccccc1)c1ccccc1` (stereo unspecified), the T/C by setting is: under setting [9], 100 % of control; under setting [10], 93 % of control; (dose: 200.0 mg/kg/injection, schedule: Q01DX005 (ip), vehicle: Klucel (hydroxypropylcellulose) (HPC)) 98 % of control.

As for `Cc1oc2ccccc2c(=O)c1CN1CCOCC1`, the T/C is 101 % of control (dose: 60.0 mg/kg/injection, schedule: Q01DX005 (ip), vehicle: saline) and 103 % of control (dose: 120.0 mg/kg/injection, schedule: Q01DX005 (ip), vehicle: saline).

On to `C=CC(=O)C(C(=O)OCC)=P(c1ccccc1)(c1ccccc1)c1ccccc1`, for which the T/C was 98 % of control (dose: 60.0 mg/kg/injection, schedule: Q01DX005 (ip), vehicle: Klucel (hydroxypropylcellulose) (HPC)); 97 % of control (dose: 120.0 mg/kg/injection, schedule: Q01DX005 (ip), vehicle: Klucel (hydroxypropylcellulose) (HPC)); 101 % of control (dose: 240.0 mg/kg/injection, schedule: Q01DX005 (ip), vehicle: Klucel (hydroxypropylcellulose) (HPC)).
